# Laboratory results published in patent publication US5521319A, “Biotinylation reagent and method of use thereof” (priority 1993, dated 1996).
# Experiments:
# [1] = Solubility of biotinylation reagents at 20° C.; format: physicochemical; details: for Solubility in DMF / Solubility in dichloromethane / Solubility in methanol / Solubility in water: 20° C.
# Description: [table 1: the next 15 blocks are its lines as printed, fixed-width]
# TSH [2] = experiment: Electrochemiluminescence immunological determination of TSH with biotinylated antibody, ruthenium-labelled F(ab')2 and streptavidin magnetic particles
# Description: (§1) After dialysis against 25 mmol/l potassium phosphate/50 mmol/l sodium chloride pH 7.0, the product is lyophilized.
# TSH [3] = experiment: Immunological determination of TSH using streptavidin magnetic particles and photometric signal measurement
# Description: as §1
# [4] = cited from earlier work; for Solubility in organic solvents: organic solvents with the exception of DMSO and DMF
# [5] = electrochemiluminescence measurement, vs biotin-NHS
Compound,Solubility in DMF [1],Solubility in dichloromethane ([1]; dichloromethane),Solubility in methanol [1],Solubility in water ([1]; water),Signal of biotinylated antibodies compared with spacer-free biotin-NHS (TSH [2]; [5]),Solubility in organic solvents [4],Solubility in water and aqueous buffer solutions [4],also measured
"O=C(CCCCCCC(=O)ON1C(=O)CCC1=O)NCCOCCOCCNC(=O)CCCC[C@@H]1SC[C@@H]2NC(=O)N[C@@H]21 [biotin-DDS, biotinoyl-amino-3,6-dioxaoctanyl-aminocarbonyl-heptanoic acid-N-hydroxysuccinimide ester]",20000 µg/mL,10000 µg/mL,20000 µg/mL,7000 µg/mL,considerably higher signals,,,"Solubility spectrum compared with known reagents ([1]; compared with biotinylation reagents of the state of the art): considerably broader solubility spectrum than known compounds; Solubility in strongly polar (water) and non-polar (dichloromethane) solvents ([1]; water, dichloromethane): good solubility; Performance of conjugates produced with the reagent, better than with biotin-NHS (TSH [2]; electrochemiluminescence and other immunological tests with spherical solid phases, vs biotin-NHS): about 3.5 fold; Performance of conjugates produced with the reagent, better than with biotin-X-NHS (TSH [2]; electrochemiluminescence and other immunological tests with spherical solid phases, vs biotin-X-NHS): 1.3 fold; Signal yield of antibodies biotinylated via biotin-DDS, higher than via biotin-X-NHS (TSH [2]; electrochemiluminescence measurement, vs antibodies biotinylated via biotin-X-NHS): 25.7%; Photometric signal of labelled antibody compared with biotin-X-NHS (TSH [3]; magnetic particle test with antibody-POD conjugate, vs antibody biotinylated with biotin-X-NHS): significantly higher signals; Degree of biotinylation giving the signal optimum (TSH [3]; photometric measurement): signal optimum at a lower degree of biotinylation"
O=C(CCCC[C@@H]1SC[C@@H]2NC(=O)N[C@@H]21)NCCCCCC(=O)ON1C(=O)CCC1=O [NHS-LC-biotin],20000 µg/mL,,20000 µg/mL,2000 µg/mL,,,,
O=C(CCCC[C@@H]1SC[C@@H]2NC(=O)N[C@@H]21)NCCCCCC(=O)ON1C(=O)CC(S(=O)(=O)O)C1=O (some centres unmarked) [sulfo-NHS-LC-biotin],,,,,,,,"Solubility in an aqueous medium ([4]; aqueous medium): good solubility; Solubility in organic solvents in the required concentrations ([4]; organic solvents, in the required concentrations): not soluble"
"O=C1N[C@H]2[C@H](CS[C@H]2CCCCC(=O)ON2C(=O)CCC2=O)N1 [biotin-NHS, biotin-N-hydroxysuccinimide esters]",,,,,,only moderately soluble,only moderate solubility,
"O=C(CCCC[C@@H]1SC[C@@H]2NC(=O)N[C@@H]21)NCCCCCC(=O)ON1C(=O)CCC1=O [biotin-X-NHS, biotinoylaminocaproic acidN-hydroxysuccinimide ester]",10000 µg/mL,< 1000 µg/mL,10000 µg/mL,10000 µg/mL,considerably higher signals,only moderately soluble,only moderate solubility,
